Kd data for twelve molecules are collected here from ChEMBL document CHEMBL3991601, “The target landscape of clinical kinase drugs” (Science, 2017).

One experiment addresses T1, Activin receptor type-1 (Homo sapiens, UniProt Q04771).
T1 sequence (Q04771 whole entry): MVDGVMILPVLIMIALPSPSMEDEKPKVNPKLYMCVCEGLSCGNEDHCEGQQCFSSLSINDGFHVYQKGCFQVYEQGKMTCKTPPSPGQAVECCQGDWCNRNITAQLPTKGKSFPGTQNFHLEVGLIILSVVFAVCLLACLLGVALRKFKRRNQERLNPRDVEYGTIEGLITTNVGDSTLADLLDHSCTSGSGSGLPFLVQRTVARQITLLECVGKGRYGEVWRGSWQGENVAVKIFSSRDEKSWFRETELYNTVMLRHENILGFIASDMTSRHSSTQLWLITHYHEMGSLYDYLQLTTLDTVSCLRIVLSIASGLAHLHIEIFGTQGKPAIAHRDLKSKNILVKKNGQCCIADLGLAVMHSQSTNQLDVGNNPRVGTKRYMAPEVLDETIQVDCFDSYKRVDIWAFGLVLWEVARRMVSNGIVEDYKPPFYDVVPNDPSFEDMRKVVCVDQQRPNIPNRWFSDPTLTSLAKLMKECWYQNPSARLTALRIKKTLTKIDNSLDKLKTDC

For experiment [1], the target named is 5'-AMP-activated protein kinase catalytic subunit alpha-1 (Homo sapiens, UniProt Q13131).
5'-AMP-activated protein kinase catalytic subunit alpha-1, sequence (Q13131 whole entry): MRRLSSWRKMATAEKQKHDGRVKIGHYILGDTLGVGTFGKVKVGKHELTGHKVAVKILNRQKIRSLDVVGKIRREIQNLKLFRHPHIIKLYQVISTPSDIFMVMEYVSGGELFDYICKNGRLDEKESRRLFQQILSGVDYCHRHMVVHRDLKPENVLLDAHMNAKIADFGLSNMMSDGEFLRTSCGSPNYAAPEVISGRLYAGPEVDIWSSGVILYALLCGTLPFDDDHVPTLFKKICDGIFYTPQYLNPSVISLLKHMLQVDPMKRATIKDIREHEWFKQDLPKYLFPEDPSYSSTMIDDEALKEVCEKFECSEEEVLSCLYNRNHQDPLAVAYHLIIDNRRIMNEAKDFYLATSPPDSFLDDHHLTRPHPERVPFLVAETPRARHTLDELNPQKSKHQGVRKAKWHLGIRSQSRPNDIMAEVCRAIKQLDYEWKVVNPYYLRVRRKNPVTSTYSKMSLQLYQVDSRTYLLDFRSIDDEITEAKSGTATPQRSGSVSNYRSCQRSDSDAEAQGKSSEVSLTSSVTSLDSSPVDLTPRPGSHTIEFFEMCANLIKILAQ
For experiment [2], the target named is Ras-related protein Rab-6A (Homo sapiens, UniProt P20340).
Ras-related protein Rab-6A, sequence (P20340 whole entry, the tested form may be a part): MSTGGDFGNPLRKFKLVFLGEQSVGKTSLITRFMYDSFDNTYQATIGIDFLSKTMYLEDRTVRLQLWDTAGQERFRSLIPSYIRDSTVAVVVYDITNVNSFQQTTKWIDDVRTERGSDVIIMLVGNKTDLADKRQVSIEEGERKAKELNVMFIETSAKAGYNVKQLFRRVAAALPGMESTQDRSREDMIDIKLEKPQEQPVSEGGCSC
Experiment [3] addresses Epithelial discoidin domain-containing receptor 1 (Homo sapiens, UniProt Q08345).
The next experiment addresses Ephrin type-A receptor 4 (Homo sapiens, UniProt P54764).
Experiment [4] has as its target T2, DNA replication licensing factor MCM4 (Homo sapiens, UniProt P33991).
T2 sequence (P33991 whole entry): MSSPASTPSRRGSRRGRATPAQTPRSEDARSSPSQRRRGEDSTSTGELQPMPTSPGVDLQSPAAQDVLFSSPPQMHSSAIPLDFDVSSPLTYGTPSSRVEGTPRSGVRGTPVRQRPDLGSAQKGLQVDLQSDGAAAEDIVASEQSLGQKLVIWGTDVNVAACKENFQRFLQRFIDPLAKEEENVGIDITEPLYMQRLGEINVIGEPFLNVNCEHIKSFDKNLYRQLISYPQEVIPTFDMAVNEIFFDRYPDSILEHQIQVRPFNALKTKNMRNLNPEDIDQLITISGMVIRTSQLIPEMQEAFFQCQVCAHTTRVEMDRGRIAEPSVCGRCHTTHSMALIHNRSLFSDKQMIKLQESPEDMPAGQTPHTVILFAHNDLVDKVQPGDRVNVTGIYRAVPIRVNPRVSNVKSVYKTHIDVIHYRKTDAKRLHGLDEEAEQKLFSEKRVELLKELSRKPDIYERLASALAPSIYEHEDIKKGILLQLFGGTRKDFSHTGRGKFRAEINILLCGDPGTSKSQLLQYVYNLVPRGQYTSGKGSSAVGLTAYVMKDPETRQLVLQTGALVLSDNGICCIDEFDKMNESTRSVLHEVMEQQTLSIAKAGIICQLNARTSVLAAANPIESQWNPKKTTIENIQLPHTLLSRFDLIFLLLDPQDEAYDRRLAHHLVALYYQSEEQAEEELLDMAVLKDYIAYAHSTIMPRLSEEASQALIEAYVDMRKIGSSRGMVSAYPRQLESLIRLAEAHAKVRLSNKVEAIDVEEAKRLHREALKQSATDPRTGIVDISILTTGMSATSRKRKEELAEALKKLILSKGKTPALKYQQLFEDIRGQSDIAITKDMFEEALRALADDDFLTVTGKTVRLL

Experiment [5] has as its target T3, Serine/threonine-protein kinase TBK1 (Homo sapiens, UniProt Q9UHD2).
T3 sequence (Q9UHD2 whole entry): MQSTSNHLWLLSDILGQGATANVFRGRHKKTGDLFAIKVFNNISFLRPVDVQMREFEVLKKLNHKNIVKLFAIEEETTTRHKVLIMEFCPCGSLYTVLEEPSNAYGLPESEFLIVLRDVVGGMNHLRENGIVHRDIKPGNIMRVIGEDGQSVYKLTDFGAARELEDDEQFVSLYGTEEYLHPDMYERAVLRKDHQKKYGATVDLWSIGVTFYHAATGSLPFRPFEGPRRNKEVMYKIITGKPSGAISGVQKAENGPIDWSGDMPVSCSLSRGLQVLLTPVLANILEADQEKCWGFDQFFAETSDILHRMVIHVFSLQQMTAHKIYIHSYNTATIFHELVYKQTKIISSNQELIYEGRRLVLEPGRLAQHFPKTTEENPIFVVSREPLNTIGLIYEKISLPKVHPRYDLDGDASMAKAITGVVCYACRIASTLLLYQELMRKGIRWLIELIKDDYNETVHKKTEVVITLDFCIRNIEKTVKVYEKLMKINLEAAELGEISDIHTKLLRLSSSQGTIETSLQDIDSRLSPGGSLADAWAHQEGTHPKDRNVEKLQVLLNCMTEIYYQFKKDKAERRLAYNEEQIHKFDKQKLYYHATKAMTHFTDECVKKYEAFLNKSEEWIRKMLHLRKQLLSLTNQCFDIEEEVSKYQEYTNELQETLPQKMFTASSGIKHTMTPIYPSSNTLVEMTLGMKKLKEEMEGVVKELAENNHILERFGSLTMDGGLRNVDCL

The target in a further experiment is T4, dCTP pyrophosphatase 1 (Homo sapiens, UniProt Q9H773).
T4 sequence (Q9H773 whole entry): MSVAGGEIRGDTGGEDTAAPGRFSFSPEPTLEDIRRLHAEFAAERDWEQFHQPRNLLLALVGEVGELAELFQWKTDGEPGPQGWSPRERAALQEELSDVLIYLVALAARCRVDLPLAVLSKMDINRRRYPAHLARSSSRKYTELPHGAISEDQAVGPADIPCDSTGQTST

A further experiment has as its target TGF-beta receptor type-2 (Homo sapiens, UniProt P37173).

Activity calls are given as the source filed them. Cut-off read from the data, not from the text of the source, for most assays here: actives have a measured Kd and inactives only a lower limit.
Note: in the data inactive means no Kd found up to 30 µM.

TGF-beta receptor type-2, sequence (P37173 whole entry): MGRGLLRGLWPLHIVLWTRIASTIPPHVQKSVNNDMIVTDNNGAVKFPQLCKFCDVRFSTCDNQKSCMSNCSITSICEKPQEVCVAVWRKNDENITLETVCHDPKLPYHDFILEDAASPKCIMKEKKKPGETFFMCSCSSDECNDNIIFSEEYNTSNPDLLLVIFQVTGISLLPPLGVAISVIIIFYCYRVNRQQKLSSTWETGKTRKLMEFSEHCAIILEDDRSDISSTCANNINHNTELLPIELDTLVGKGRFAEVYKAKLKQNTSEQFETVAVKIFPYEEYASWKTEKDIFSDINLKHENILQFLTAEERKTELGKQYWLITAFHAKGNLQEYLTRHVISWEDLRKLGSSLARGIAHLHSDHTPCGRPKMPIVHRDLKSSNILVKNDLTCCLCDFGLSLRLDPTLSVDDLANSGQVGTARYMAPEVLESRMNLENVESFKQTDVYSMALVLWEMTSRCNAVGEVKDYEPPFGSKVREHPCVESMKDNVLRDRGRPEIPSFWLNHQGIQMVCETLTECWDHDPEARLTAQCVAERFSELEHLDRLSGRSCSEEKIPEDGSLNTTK
Ephrin type-A receptor 4, sequence (P54764 whole entry): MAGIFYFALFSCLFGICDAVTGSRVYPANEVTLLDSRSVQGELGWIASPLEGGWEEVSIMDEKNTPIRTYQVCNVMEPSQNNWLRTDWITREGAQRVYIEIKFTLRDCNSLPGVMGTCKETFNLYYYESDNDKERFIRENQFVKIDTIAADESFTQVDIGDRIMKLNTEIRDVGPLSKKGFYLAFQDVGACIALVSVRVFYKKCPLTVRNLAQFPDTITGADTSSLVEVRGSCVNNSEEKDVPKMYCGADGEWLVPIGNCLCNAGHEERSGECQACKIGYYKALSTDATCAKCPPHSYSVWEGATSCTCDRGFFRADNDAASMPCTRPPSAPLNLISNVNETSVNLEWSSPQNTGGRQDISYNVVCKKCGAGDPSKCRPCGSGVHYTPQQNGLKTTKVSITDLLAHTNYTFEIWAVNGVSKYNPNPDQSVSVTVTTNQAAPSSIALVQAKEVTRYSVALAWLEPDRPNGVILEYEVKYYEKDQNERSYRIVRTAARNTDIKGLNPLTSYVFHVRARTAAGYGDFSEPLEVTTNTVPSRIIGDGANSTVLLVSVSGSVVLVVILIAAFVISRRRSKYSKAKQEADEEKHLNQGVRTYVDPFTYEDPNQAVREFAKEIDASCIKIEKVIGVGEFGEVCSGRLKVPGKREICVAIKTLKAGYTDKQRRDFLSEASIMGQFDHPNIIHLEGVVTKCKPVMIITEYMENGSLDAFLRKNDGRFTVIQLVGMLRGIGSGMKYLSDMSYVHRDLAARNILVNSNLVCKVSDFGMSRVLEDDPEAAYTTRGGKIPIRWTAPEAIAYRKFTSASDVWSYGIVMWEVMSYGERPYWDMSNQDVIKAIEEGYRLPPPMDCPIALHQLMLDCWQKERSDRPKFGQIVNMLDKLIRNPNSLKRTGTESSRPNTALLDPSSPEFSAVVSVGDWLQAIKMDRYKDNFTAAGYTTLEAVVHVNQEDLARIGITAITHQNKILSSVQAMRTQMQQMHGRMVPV
Epithelial discoidin domain-containing receptor 1, sequence (Q08345 whole entry, the tested form may be a part): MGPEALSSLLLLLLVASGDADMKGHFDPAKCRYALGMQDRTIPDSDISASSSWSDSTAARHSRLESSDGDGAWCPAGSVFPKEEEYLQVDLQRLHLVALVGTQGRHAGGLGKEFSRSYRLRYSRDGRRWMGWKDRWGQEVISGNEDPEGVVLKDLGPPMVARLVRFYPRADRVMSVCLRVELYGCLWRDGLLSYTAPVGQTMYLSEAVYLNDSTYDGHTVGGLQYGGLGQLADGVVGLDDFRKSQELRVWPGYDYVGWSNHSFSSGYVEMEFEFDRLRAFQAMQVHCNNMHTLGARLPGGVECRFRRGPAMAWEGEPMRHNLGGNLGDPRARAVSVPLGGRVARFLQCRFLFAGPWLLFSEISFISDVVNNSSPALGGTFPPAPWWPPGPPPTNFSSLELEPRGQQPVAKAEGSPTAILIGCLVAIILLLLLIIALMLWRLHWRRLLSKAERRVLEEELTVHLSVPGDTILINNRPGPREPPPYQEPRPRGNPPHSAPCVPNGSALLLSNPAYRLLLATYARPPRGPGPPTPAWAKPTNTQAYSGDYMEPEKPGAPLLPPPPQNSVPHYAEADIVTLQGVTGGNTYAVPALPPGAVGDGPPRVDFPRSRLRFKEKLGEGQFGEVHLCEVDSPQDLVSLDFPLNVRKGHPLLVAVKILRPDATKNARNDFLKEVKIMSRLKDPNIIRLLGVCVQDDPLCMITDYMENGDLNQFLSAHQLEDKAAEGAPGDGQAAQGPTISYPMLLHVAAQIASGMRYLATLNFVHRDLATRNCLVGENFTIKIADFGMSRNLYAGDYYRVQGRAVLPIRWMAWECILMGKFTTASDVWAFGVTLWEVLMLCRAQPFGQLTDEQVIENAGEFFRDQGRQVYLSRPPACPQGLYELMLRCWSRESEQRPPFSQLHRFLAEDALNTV

Consider `O=C1NC(=O)/C(=C/c2ccc3nccc(-c4ccncc4)c3c2)S1` [GSK-1059615], for which the Kd (on Activin receptor type-1; in experiment [1]; in experiment [2]; in experiment [3]; at Ephrin type-A receptor 4; in [4]) was > 30 µM (inactive) throughout. The Kd (in experiment [5]; on dCTP pyrophosphatase 1; on TGF-beta receptor type-2) was > 30 µM (inactive) in each case.
Turning to `C[C@@H](Nc1cc(F)cc(F)c1)c1cc(C(=O)N(C)C)cc2c(=O)cc(N3CCOCC3)oc12` [AZD-8186], the Kd (on Activin receptor type-1; in experiment [1]; in [2]; in experiment [3]; at Ephrin type-A receptor 4; in experiment [4]) was > 30 µM (inactive) in each case. Moreover, the Kd (in experiment [5]; on dCTP pyrophosphatase 1; at TGF-beta receptor type-2) was > 30 µM (inactive) in each case.
For `Cc1c(F)cc(C(=O)NC2CC2)cc1-c1ccc(C(=O)NCC(C)(C)C)cn1` [LOSMAPIMOD], the Kd (on Activin receptor type-1; in experiment [1]; in experiment [2]; in experiment [3]; at Ephrin type-A receptor 4; in [4]) was > 30 µM (inactive) throughout. In addition, the Kd (in experiment [5]; at dCTP pyrophosphatase 1; at TGF-beta receptor type-2) was > 30 µM (inactive) throughout.
With `C=CC(=O)N1CCC(Oc2cc3c(Nc4ccc(Cl)c(Cl)c4F)ncnc3cc2OC)CC1` [POZIOTINIB], the Kd (commonly the concentration at which binding is half-saturated) was > 30 µM (inactive) at Activin receptor type-1; > 30 µM (inactive) in [1]; > 30 µM (inactive) in experiment [2]; > 30 µM (inactive) in experiment [3]; 7.06 µM (active) at Ephrin type-A receptor 4; > 30 µM (inactive) in [4]. Also, the Kd (in experiment [5]; on dCTP pyrophosphatase 1; at TGF-beta receptor type-2) was > 30 µM (inactive) throughout.
Consider `Cc1cc2c(F)c(Oc3ncnn4cc(OC[C@@H](C)OC(=O)[C@H](C)N)c(C)c34)ccc2[nH]1` [BRIVANIB ALANINATE], for which the Kd on Activin receptor type-1 is > 30 µM (inactive); in experiment [1], > 30 µM (inactive); in [2], > 30 µM (inactive); in experiment [3], 1.04 µM (active); at Ephrin type-A receptor 4, > 30 µM (inactive); in experiment [4], > 30 µM (inactive). For the same molecule, the Kd (in experiment [5]; on dCTP pyrophosphatase 1; on TGF-beta receptor type-2) was > 30 µM (inactive) in each case.
Take `C[C@@H]1CN(Cc2ccc(F)cc2)[C@@H](C)CN1C(=O)c1cc2c(C(=O)C(=O)N(C)C)cn(C)c2cc1Cl` [TALMAPIMOD]: the Kd (at Activin receptor type-1; in experiment [1]; in [2]; in [3]; at Ephrin type-A receptor 4; in [4]) was > 30 µM (inactive) each time. For the same molecule, the Kd (in [5]; at dCTP pyrophosphatase 1; on TGF-beta receptor type-2) was > 30 µM (inactive) in each case.
Take `CN1CCC(COc2cnc(-c3cccc(Cn4nc(-c5cccc(C#N)c5)ccc4=O)c3)nc2)CC1` [TEPOTINIB]: the Kd (at Activin receptor type-1; in experiment [1]; in [2]; in [3]; on Ephrin type-A receptor 4; in experiment [4]) was > 30 µM (inactive) in each case. Further, the Kd (in [5]; at dCTP pyrophosphatase 1; on TGF-beta receptor type-2) was > 30 µM (inactive) each time.
For `COc1cc2nccc(Oc3ccc(NC(=O)NC4CC4)c(Cl)c3)c2cc1C(N)=O` [LENVATINIB], the Kd on Activin receptor type-1 is > 30 µM (inactive); in experiment [1], > 30 µM (inactive); in [2], > 30 µM (inactive); in [3], 0.046 µM (active); on Ephrin type-A receptor 4, > 30 µM (inactive); in experiment [4] it was > 30 µM (inactive). Also, the Kd (in experiment [5]; on dCTP pyrophosphatase 1; on TGF-beta receptor type-2) was > 30 µM (inactive) in each case.
As to `CNC(=O)c1ccc(C)c(-n2c(C)cc(OCc3ccc(F)cc3F)c(Br)c2=O)c1` [PH-797804], the Kd (on Activin receptor type-1; in [1]; in experiment [2]; in [3]; on Ephrin type-A receptor 4; in [4]) was > 30 µM (inactive) each time. Besides, the Kd (in experiment [5]; on dCTP pyrophosphatase 1; at TGF-beta receptor type-2) was > 30 µM (inactive) each time.
Turning to `COc1cc2nccc(Oc3ccc(NC(=O)Nc4cc(C)on4)c(Cl)c3)c2cc1OC` [TIVOZANIB], the Kd at Activin receptor type-1 is > 30 µM (inactive); in experiment [1] it was > 30 µM (inactive); in experiment [2], > 30 µM (inactive); in [3], 0.19 µM (active); on Ephrin type-A receptor 4, 5.56 µM (active); in experiment [4], > 30 µM (inactive). Also, the Kd (in experiment [5]; on dCTP pyrophosphatase 1; on TGF-beta receptor type-2) was > 30 µM (inactive) throughout.
Regarding `C[C@@H](c1ccc2nccn2c1)n1nnc2ncc(-c3cnn(C)c3)nc21` [SAVOLITINIB], the Kd (at Activin receptor type-1; in experiment [1]; in [2]; in experiment [3]; at Ephrin type-A receptor 4; in experiment [4]) was > 30 µM (inactive) each time. Besides, the Kd (in [5]; on dCTP pyrophosphatase 1; on TGF-beta receptor type-2) was > 30 µM (inactive) throughout.
With `COc1cc(N2CCC(N3CCN(C)CC3)CC2)ccc1Nc1ncnc(Nc2ccccc2S(=O)(=O)C(C)C)n1` [ASP-3026], the Kd at Activin receptor type-1 was > 30 µM (inactive); in experiment [1] it was > 30 µM (inactive); in experiment [2], > 30 µM (inactive); in [3] it was 4.04 µM (active); at Ephrin type-A receptor 4, > 30 µM (inactive); in [4], > 30 µM (inactive). The Kd (in experiment [5]; on dCTP pyrophosphatase 1; on TGF-beta receptor type-2) was > 30 µM (inactive) throughout.
